Tested on: 454973-116-R2-J3-PDC spheroids, percent test/control viability
Assay: Anticancer human tumor 454973-116-R2-J3-PDC patient-derived pancreatic carcinoma cell line growth inhibition [CLK]
Conditions: spheroids with HUVEC and MSC; for IC50: curve of first compound; for viability, T/C: stronger effect = lower value
In short: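 Patient-derived tumor cells grown as complex spheroids with HUVEC endothelial cells and mesenchymal stem cells, treated with drug combinations. Concentrations descend in half-log steps from near clinical Cmax, or from 10 microM if Cmax unknown.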
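Further: spheroids exposed to compounds for 7 days before readout.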

Q: For `C=CC(=O)Nc1cc(Nc2nccc(-c3cn(C)c4ccccc34)n2)c(OC)cc1N(C)CCN(C)C` + CN1CCN(c2cc(C(=O)Nc3cc4cc(-c5cnn(C)c5)ccc4cn3)ccn2)CC1, which IC50 (second compound 0.0316 µM) is on record?
A: The IC50 was > 300 nM.

Q: And the IC50 (second compound 0.1 µM)?
A: The IC50 was > 300 nM.

Q: And the IC50 (second compound 0.316 µM)?
A: Its IC50 is < 0.949 nM.

Q: And the IC50 (second compound 1 µM)?
A: The IC50 was < 0.949 nM.

Q: What about the IC50 (second compound 3.16 µM) of the same compound?
A: The IC50 was < 0.949 nM.

Q: What about the IC50 (second compound 10 µM) of the same compound?
A: Its IC50 is < 0.949 nM.

Q: And the viability, T/C (second compound 0.0316 µM, first compound 0.000949 µM)?
A: Its viability, T/C is 95.6%.

Q: What about the viability, T/C (second compound 0.0316 µM, first compound 0.003 µM) of the same compound?
A: Its viability, T/C is 107%.

Q: And the viability, T/C (second compound 0.0316 µM, first compound 0.00949 µM)?
A: Its viability, T/C is 96.8%.

Q: What about the viability, T/C (second compound 0.0316 µM, first compound 0.03 µM) of the same compound?
A: The viability, T/C was 104%.

Q: And the viability, T/C (second compound 0.0316 µM, first compound 0.0949 µM)?
A: Its viability, T/C is 102%.

Q: And the viability, T/C (second compound 0.0316 µM, first compound 0.3 µM)?
A: The viability, T/C was 98.3%.

Q: And the viability, T/C (second compound 0.1 µM, first compound 0.000949 µM)?
A: The viability, T/C was 72.8%.

Q: And the viability, T/C (second compound 0.1 µM, first compound 0.003 µM)?
A: The viability, T/C was 76.6%.

Q: And the viability, T/C (second compound 0.1 µM, first compound 0.00949 µM)?
A: Its viability, T/C is 77.1%.

Q: What about the viability, T/C (second compound 0.1 µM, first compound 0.03 µM) of the same compound?
A: The viability, T/C was 77.1%.

Q: And the viability, T/C (second compound 0.1 µM, first compound 0.0949 µM)?
A: Its viability, T/C is 79%.

Q: And the viability, T/C (second compound 0.1 µM, first compound 0.3 µM)?
A: Its viability, T/C is 72%.

Q: And the viability, T/C (second compound 0.316 µM, first compound 0.000949 µM)?
A: The viability, T/C was 1.85%.

Q: And the viability, T/C (second compound 0.316 µM, first compound 0.003 µM)?
A: The viability, T/C was 4.04%.

Q: What about the viability, T/C (second compound 0.316 µM, first compound 0.00949 µM) of the same compound?
A: The viability, T/C was 1.97%.

Q: What about the viability, T/C (second compound 0.316 µM, first compound 0.03 µM) of the same compound?
A: The viability, T/C was 3.67%.

Q: What about the viability, T/C (second compound 0.316 µM, first compound 0.0949 µM) of the same compound?
A: The viability, T/C was 1.83%.

Q: What about the viability, T/C (second compound 0.316 µM, first compound 0.3 µM) of the same compound?
A: Its viability, T/C is 1.5%.

Q: What about the viability, T/C (second compound 1 µM, first compound 0.000949 µM) of the same compound?
A: Its viability, T/C is 0.13%.

Q: And the viability, T/C (second compound 1 µM, first compound 0.003 µM)?
A: The viability, T/C was 0.14%.

Q: And the viability, T/C (second compound 1 µM, first compound 0.00949 µM)?
A: The viability, T/C was 0.14%.

Q: And the viability, T/C (second compound 1 µM, first compound 0.03 µM)?
A: The viability, T/C was 0.1%.

Q: What about the viability, T/C (second compound 1 µM, first compound 0.0949 µM) of the same compound?
A: The viability, T/C was 0.12%.

Q: And the viability, T/C (second compound 1 µM, first compound 0.3 µM)?
A: The viability, T/C was 0.12%.

Q: And the viability, T/C (second compound 3.16 µM, first compound 0.000949 µM)?
A: Its viability, T/C is 0.15%.

Q: What about the viability, T/C (second compound 3.16 µM, first compound 0.003 µM) of the same compound?
A: The viability, T/C was 0.21%.

Q: What about the viability, T/C (second compound 3.16 µM, first compound 0.00949 µM) of the same compound?
A: The viability, T/C was 0.2%.

Q: What about the viability, T/C (second compound 3.16 µM, first compound 0.03 µM) of the same compound?
A: The viability, T/C was 0.2%.

Q: What about the viability, T/C (second compound 3.16 µM, first compound 0.0949 µM) of the same compound?
A: Its viability, T/C is 1.74%.

Q: And the viability, T/C (second compound 3.16 µM, first compound 0.3 µM)?
A: The viability, T/C was 0.35%.

Q: And the viability, T/C (second compound 10 µM, first compound 0.000949 µM)?
A: The viability, T/C was 0.31%.

Q: What about the viability, T/C (second compound 10 µM, first compound 0.003 µM) of the same compound?
A: The viability, T/C was 0.26%.

Q: What about the viability, T/C (second compound 10 µM, first compound 0.00949 µM) of the same compound?
A: Its viability, T/C is 0.21%.

Q: And the viability, T/C (second compound 10 µM, first compound 0.03 µM)?
A: The viability, T/C was 0.29%.

Q: What about the viability, T/C (second compound 10 µM, first compound 0.0949 µM) of the same compound?
A: Its viability, T/C is 2.12%.

Q: And the viability, T/C (second compound 10 µM, first compound 0.3 µM)?
A: Its viability, T/C is 2.07%.

Q: What does the source list for `Nc1ccccc1NC(=O)c1ccc(CNC(=O)OCc2cccnc2)cc1` + CN1CCN(c2cc(C(=O)Nc3cc4cc(-c5cnn(C)c5)ccc4cn3)ccn2)CC1?
A: IC50 (second compound 0.0316 µM): 2100 nM; IC50 (second compound 0.1 µM): 1140 nM; IC50 (second compound 0.316 µM): < 31.6 nM; IC50 (second compound 1 µM): < 31.6 nM; IC50 (second compound 3.16 µM): < 31.6 nM; IC50 (second compound 10 µM): < 31.6 nM; viability, T/C (second compound 0.0316 µM, first compound 0.0316 µM): 95.7%; viability, T/C (second compound 0.0316 µM, first compound 0.1 µM): 92.8%; viability, T/C (second compound 0.0316 µM, first compound 0.316 µM): 89.9%; viability, T/C (second compound 0.0316 µM, first compound 1 µM): 74.2%; viability, T/C (second compound 0.0316 µM, first compound 3.16 µM): 36.7%; viability, T/C (second compound 0.0316 µM, first compound 10 µM): 10.9%; viability, T/C (second compound 0.1 µM, first compound 0.0316 µM): 73.5%; viability, T/C (second compound 0.1 µM, first compound 0.1 µM): 76.7%; viability, T/C (second compound 0.1 µM, first compound 0.316 µM): 60.5%; viability, T/C (second compound 0.1 µM, first compound 1 µM): 57.6%; viability, T/C (second compound 0.1 µM, first compound 3.16 µM): 24.1%; viability, T/C (second compound 0.1 µM, first compound 10 µM): 2.49%; viability, T/C (second compound 0.316 µM, first compound 0.0316 µM): 1.31%; viability, T/C (second compound 0.316 µM, first compound 0.1 µM): 1.59%; viability, T/C (second compound 0.316 µM, first compound 0.316 µM): 0.45%; viability, T/C (second compound 0.316 µM, first compound 1 µM): 2.31%; viability, T/C (second compound 0.316 µM, first compound 3.16 µM): 0.06%; viability, T/C (second compound 0.316 µM, first compound 10 µM): 0.18%; viability, T/C (second compound 1 µM, first compound 0.0316 µM): 0.11%; viability, T/C (second compound 1 µM, first compound 0.1 µM): 0.84%; viability, T/C (second compound 1 µM, first compound 0.316 µM): 0.11%; viability, T/C (second compound 1 µM, first compound 1 µM): 0.08%; viability, T/C (second compound 1 µM, first compound 3.16 µM): 0.05%; viability, T/C (second compound 1 µM, first compound 10 µM): 0.07%; viability, T/C (second compound 3.16 µM, first compound 0.0316 µM): 0.13%; viability, T/C (second compound 3.16 µM, first compound 0.1 µM): 0.33%; viability, T/C (second compound 3.16 µM, first compound 0.316 µM): 0.2%; viability, T/C (second compound 3.16 µM, first compound 1 µM): 0.11%; viability, T/C (second compound 3.16 µM, first compound 3.16 µM): 0.1%; viability, T/C (second compound 3.16 µM, first compound 10 µM): 0.77%; viability, T/C (second compound 10 µM, first compound 0.0316 µM): 0.13%; viability, T/C (second compound 10 µM, first compound 0.1 µM): 0.68%; viability, T/C (second compound 10 µM, first compound 0.316 µM): 0.22%; viability, T/C (second compound 10 µM, first compound 1 µM): 0.29%; viability, T/C (second compound 10 µM, first compound 3.16 µM): 0.22%; viability, T/C (second compound 10 µM, first compound 10 µM): 0.18%
